Results as given in article PMC12308784, “Organometallic Half-Sandwich Complexes of 1,10-Phenanthroline Derivatives with Improved Solubility, Albumin-Binding, and Nanoformulation Potential Targeting Drug Resistance in Cancer” (Inorganic Chemistry, 2025).
Where two headings read alike, the source gives them in different places. Marks after values point to notes of the source that are not given here.

How the values were obtained:
MES-SA/B1-mOrange = assay: fluorescent triple coculture cytotoxicity assay; type: cell-based, human; settings: 384-well plate; for SR (MES-SA/B1): selectivity ratio versus parental MES-SA
Excerpt: (§1) Cytotoxicity of the compounds were further tested also in an in vitro MDR model system, consisting of an MES-SA uterine sarcoma cell line, and its P-gp (ABCB1) overexpressing variants MES-SA/B1, that was genetically engineered to express P-gp, and MES-SA/Dx5, which acquired a P-gp-mediated MDR phenotype due to selection in doxorubicin. , The expression of different fluorescent proteins in each line (mCherry, mOrange, or eGFP) allowed coculturing of these three cell lines, providing more relevant data compared to monocultures, as the interaction between parental and resistant phenotypes is reflected in cytotoxicity.
(§2) Cytotoxicity of nanoformulated [RhCp*(BP)-Cl]-Cl with cross-linked HSA and HTP carriers was tested against the previously introduced triple coculture of fluorescent MES-SA cells with a slight difference. Namely, the media containing the dissolved products were removed from the wells, and fresh media was added prior to the measurement as the presence of cross-linked HSA and HTP formulations interfered with the fluorescence of the cells.
(§3) MDA-MB-231 breast adenocarcinoma and MCF-7 and T-47D invasive breast carcinomas were purchased from the Developmental Therapeutic Program of the National Cancer Institute (NIH, USA), and they were cultured in RPMI medium (Thermo Fisher). MES–SA and MES–SA/Dx5 uterine sarcoma cell lines were purchased from American Type Culture Collection and were kept in DMEM (Thermo Fisher). MES–SA/B1 was created by the transfection of the human MDR1 gene in MES–SA, and MES–SA mCherry, MES–SA/B1 mOrange, and MES–SA/Dx5 eGFP were engineered to stably express the respective fluorescent proteins, as described previously. Culture media were supplemented with 10% fetal bovine serum, 2 mM L-glutamine, 100 units/mL penicillin, and 100 μg/mL streptomycin (Thermo Fisher). Cells were kept at 37 °C under 5% CO2 and were negative for mycoplasma infection.
(§4) Cytotoxicity of the nonfluorescent cancer cells (MDA-MB-231, MCF-7, T-47D) were assessed with PrestoBlue cell viability reagent (Thermo Fisher). Briefly, 2500 cells/well were seeded on 384-well plates, and then the next day drugs were added. After 72 h incubation, PrestoBlue was added in a 10% final concentration, and after an hour of additional incubation, plates were measured with a PerkinElmer EnSpire plate reader at 555 nm/585 nm excitation/emission wavelengths. […] Drugs were added the following day, and the intensity of the fluorescent proteins were measured after 144 h incubation at the respective fluorescent channels (excitation/emission: eGFP: 485 nm/510 nm; mCherry: 585 nm/610 nm; mOrange: 545 nm/567 nm). pIC50 values were calculated by a custom program written by Judit Sessler in C#. IC50 values and standard deviation were calculated from average pIC50 values from at least 3 independent measurements. Since the IC50 values were obtained through nonlinear regression fitting of the viability vs. log(concentration) data, the resulting confidence intervals are inherently asymmetric (see pIC50 values and their corresponding SD in Tables S5 and S6).

MES-SA/Dx5-eGFP = assay: fluorescent triple coculture cytotoxicity assay; type: cell-based, human; settings: 384-well plate; for SR (MES-SA/Dx5): selectivity ratio versus parental MES-SA
Excerpt: as §1, §2, §3, §4

MES-SA mCherry = assay: fluorescent triple coculture cytotoxicity assay; type: cell-based, human; settings: 384-well plate
Excerpt: as §1, §2, §3, §4

[1] = test system: MDA-MB-231, MCF-7 and T-47D breast cancer cell lines; assay: PrestoBlue cytotoxicity, range over the three breast cancer lines; type: cell-based; settings: MDA-MB-231, MCF-7, T-47D; 72 h
Procedure: The PHEN-derived ligands (DCP, BP) (together with PHEN for comparison) and the isolated complexes ([RuCym(DCP)-Cl]-Cl, [RhCp*(DCP)-Cl]-Cl, [RuCym(BP)-Cl]-Cl, [RhCp*(BP)-Cl]-Cl) were tested against the estrogen receptor (ER) negative MDA-MB-231, and the ER positive MCF-7 and T-47D breast cancer cell lines (Table , and Figure a for easier comparison).
as §3
Cytotoxicity of the nonfluorescent cancer cells (MDA-MB-231, MCF-7, T-47D) were assessed with PrestoBlue cell viability reagent (Thermo Fisher). Briefly, 2500 cells/well were seeded on 384-well plates, and then the next day drugs were added. After 72 h incubation, PrestoBlue was added in a 10% final concentration, and after an hour of additional incubation, plates were measured with a PerkinElmer EnSpire plate reader at 555 nm/585 nm excitation/emission wavelengths. Fluorescent cells (MES-SA mCherry, MES-SA/B1 mOrange, MES-SA/Dx5 eGFP) were admixed before seeding on 384-well plates at 800 cells/well density each, thus altogether 2400 cells/well. Drugs were added the following day, and the intensity of the fluorescent proteins were measured after 144 h incubation at the respective fluorescent channels (excitation/emission: eGFP: 485 nm/510 nm; mCherry: 585 nm/610 nm; mOrange: 545 nm/567 nm). pIC50 values were calculated by a custom program written by Judit Sessler in C#. IC50 values and standard deviation were calculated from average pIC50 values from at least 3 independent measurements.

T47D = assay: PrestoBlue cytotoxicity assay; type: cell-based
Procedure: as §3
(§5) Cytotoxicity of the nonfluorescent cancer cells (MDA-MB-231, MCF-7, T-47D) were assessed with PrestoBlue cell viability reagent (Thermo Fisher). Briefly, 2500 cells/well were seeded on 384-well plates, and then the next day drugs were added. After 72 h incubation, PrestoBlue was added in a 10% final concentration, and after an hour of additional incubation, plates were measured with a PerkinElmer EnSpire plate reader at 555 nm/585 nm excitation/emission wavelengths. Fluorescent cells (MES-SA mCherry, MES-SA/B1 mOrange, MES-SA/Dx5 eGFP) were admixed before seeding on 384-well plates at 800 cells/well density each, thus altogether 2400 cells/well. Drugs were added the following day, and the intensity of the fluorescent proteins were measured after 144 h incubation at the respective fluorescent channels (excitation/emission: eGFP: 485 nm/510 nm; mCherry: 585 nm/610 nm; mOrange: 545 nm/567 nm). pIC50 values were calculated by a custom program written by Judit Sessler in C#. IC50 values and standard deviation were calculated from average pIC50 values from at least 3 independent measurements. Since the IC50 values were obtained through nonlinear regression fitting of the viability vs. log(concentration) data, the resulting confidence intervals are inherently asymmetric (see pIC50 values and their corresponding SD in Tables S5 and S6).

MDA-MB-231 = assay: PrestoBlue cytotoxicity assay; type: cell-based
Procedure: as §3, §5

MCF-7 = assay: PrestoBlue cytotoxicity assay; type: cell-based
Procedure: as §3, §5

[2] = target: T1, human serum albumin (HSA), Trp-214 in Sudlow’s site I (Homo sapiens, UniProt P02768); settings: cited from earlier work; for logK Q′ (quenching constant): organometallic precursors, PBS’, t = 25 °C
T1 construct: purchased Sigma-Aldrich A8763

[3] = target: T2, HSA Sudlow’s site I (IIA subdomain) (Homo sapiens, UniProt P02768); settings: organometallic precursors; PBS’; t = 25 °C; ref footnote a (ref 56); cited from earlier work
T2 construct: purchased Sigma-Aldrich A8763

[4] = Homo sapiens, MES-SA/B1-mOrange, coculture, 144 h, read-out: IC50
[5] = Homo sapiens, Mes-Sa/B1 mOrange, Table S6, read-out: pIC50 (mean) (converted)
[6] = Homo sapiens, MES-SA/Dx5-eGFP, coculture, 144 h, read-out: IC50
[7] = Homo sapiens, Mes-Sa/Dx5 eGFP, Table S6, read-out: pIC50 (mean) (converted)
[8] = Homo sapiens, MES-SA, 144 h, MES-SA mCherry, coculture, 144 h, read-out: IC50
[9] = Homo sapiens, MES-SA, Mes-Sa mCherry, Table S6, read-out: pIC50 (mean) (converted)
[10] = MES-SA mCherry, coculture, 144 h, read-out: IC50
[11] = Homo sapiens, 72 h, 384-well plate, read-out: IC50
[12] = Homo sapiens, Table S5, read-out: pIC50 (mean) (converted)
[13] = 72 h, 384-well plate, read-out: IC50

T1 sequence (P02768 25-609): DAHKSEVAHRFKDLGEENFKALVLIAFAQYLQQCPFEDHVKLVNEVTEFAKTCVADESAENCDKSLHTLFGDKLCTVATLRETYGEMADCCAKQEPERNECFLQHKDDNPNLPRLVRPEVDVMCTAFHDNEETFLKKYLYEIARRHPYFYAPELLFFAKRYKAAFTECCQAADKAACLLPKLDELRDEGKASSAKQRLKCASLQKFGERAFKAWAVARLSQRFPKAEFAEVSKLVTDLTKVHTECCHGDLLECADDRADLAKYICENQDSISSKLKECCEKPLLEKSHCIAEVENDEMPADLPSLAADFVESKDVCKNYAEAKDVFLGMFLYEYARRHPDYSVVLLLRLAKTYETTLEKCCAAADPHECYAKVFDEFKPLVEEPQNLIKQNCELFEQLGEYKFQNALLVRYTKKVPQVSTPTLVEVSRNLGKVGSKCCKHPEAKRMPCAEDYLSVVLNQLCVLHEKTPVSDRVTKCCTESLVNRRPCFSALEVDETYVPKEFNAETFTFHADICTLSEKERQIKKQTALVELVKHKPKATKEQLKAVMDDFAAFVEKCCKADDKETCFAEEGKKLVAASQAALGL
T2 sequence (P02768 25-609): as above

| Compound | IC50 (MES-SA/B1-mOrange; [4]) | IC50 (MES-SA/B1-mOrange; [5]) | SR (MES-SA/B1) (MES-SA/B1-mOrange) | IC50 (MES-SA/Dx5-eGFP; [6]) | IC50 (MES-SA/Dx5-eGFP; [7]) | SR (MES-SA/Dx5) (MES-SA/Dx5-eGFP) | IC50 (MES-SA mCherry; [8]) | IC50 (MES-SA mCherry; [9]) | IC50 (MES-SA mCherry; [10]) | IC50 [1] | logK WF′ (WF displacement constant) [3] | logK Q′ (quenching constant) [2] | other results |
| --- | --- | --- | --- | --- | --- | --- | --- | --- | --- | --- | --- | --- | --- |
| c1cnc2c(c1)ccc1cccnc12 [PHEN, 1,10-phenanthroline] | 1.39 µM | 1.38 µM | 2.1 | 0.41 µM | 0.417 µM | 7.1 | 3 µM | 2.95 µM | 2.95 µM | 3.2 to 8.6 µM | – | – | IC50 (T47D; [11]): 5.47 µM; IC50 (T47D; [12]): 5.5 µM; IC50 (MDA-MB-231; [11]): 3.2 µM; IC50 (MDA-MB-231; [12]): 3.16 µM; IC50 (MCF-7; Homo sapiens, MCF7, 72 h, 384-well plate, read-out: IC50): 8.57 µM; IC50 (MCF-7; Homo sapiens, MCF7, Table S5, read-out: pIC50 (mean) (converted)): 8.51 µM |
| [Ru].c1cnc2c(c1)ccc1cccnc12.c1cnc2c(c1)ccc1cccnc12.c1cnc2c(c1)ccc1cccnc12 [[Ru(PHEN)3]^2+] | – | – | – | – | – | – | – | – | – | – | – | – | interaction with HSA ([2]; ref number not given): negligible interaction |
| N.N.[Cl][Pt][Cl] [cisplatin] | – | – | 0.9 | – | – | 0.3 | – | – | 1.49 µM | 3.2 to 7 µM | – | – | IC50 (MES-SA/B1-mOrange; MES-SA/B1-mOrange, coculture, 144 h, read-out: IC50): 1.71 µM; pIC50 (mean) (MES-SA/B1-mOrange; Mes-Sa/B1 mOrange, Table S6): 5.77; IC50 (MES-SA/Dx5-eGFP; MES-SA/Dx5-eGFP, coculture, 144 h, read-out: IC50): 4.28 µM; pIC50 (mean) (MES-SA/Dx5-eGFP; Mes-Sa/Dx5 eGFP, Table S6): 5.37; pIC50 (mean) (MES-SA mCherry; Mes-Sa mCherry, Table S6): 5.83; IC50 (T47D; [13]): 6.98 µM; pIC50 (mean) (T47D; Table S5): 5.16; IC50 (MDA-MB-231; [13]): 3.16 µM; pIC50 (mean) (MDA-MB-231; Table S5): 5.50; IC50 (MCF-7; [13]): 4.78 µM; pIC50 (mean) (MCF-7; Table S5): 5.32 |
| COc1cc([C@@H]2c3cc4c(cc3[C@@H](O[C@@H]3O[C@@H]5CO[C@@H](C)O[C@H]5[C@H](O)[C@H]3O)[C@H]3COC(=O)[C@H]23)OCO4)cc(OC)c1O [etoposide] | 1.19 µM | 1.17 µM | 0.2 | 2.08 µM | 2.09 µM | 0.1 | 0.2 µM | 0.2 µM | – | – | – | – | resistance of MES-SA/B1 versus parental line (MES-SA/B1-mOrange; coculture): 6 fold; resistance of MES-SA/Dx5 versus parental line (MES-SA/Dx5-eGFP; coculture): 10 fold |
| [Rh(η^5-C5Me5)Cl2]2 [RhCp*precursor] | – | – | – | – | – | – | – | – | – | – | 6.1 ^a | 5.8 ^a | logK Q′ (quenching constant) ([2]; listed as precursor RhCp*): 5.8 |
| [Ru(η^6-p-cymene)Cl2]2 [RuCym precursor] | – | – | – | – | – | – | – | – | – | – | 5.9 ^a | 5.7 ^a | – |
